Assay results published in patent US8697145B2, “Substances having body mass redistribution properties” (Horizon Science Pty. Ltd., priority 2005, dated 2014).
Values belong to the molecule of their own block, whether it stands above or below them.

Experiments:
α-glucosidase = assay: α-Glucosidase inhibition assay; type: biochemical
Method: α-Glucosidase: Molasses powder sample was solubilized in water prior to use in this assay. Fucoidan was included as a positive control, and was also solubilized in water.
Glucosidase enzyme was solubilized in acetate buffer (50 mM, pH 4.5) at a concentration of 0.7 mg/mL. This provided a final concentration of 0.2 U/mL. To a 96-well plate, 50 μL of enzyme was added to each well. A corresponding set of wells was also included, in which acetate buffer was added instead of enzyme. Sample/controls were then added to the wells (5 μL), in triplicate, followed by the substrate 4-Nitrophenyl-α-D-glucopyranoside (final concentration 2 mM). The plate was covered, shaken and then incubated at 37° C. for 30 minutes. The reaction was stopped with the addition of 0.2 M Na2CO3 (100 μL/well). Absorbance was measured at 405 nm, using a Victor^2 plate reader.
The absorbance of the wells containing sample, substrate, and buffer were subtracted from the corresponding wells containing the glucosidase enzyme and the percent inhibition by the samples was calculated compared to the solvent controls.

rats = settings: treated rats (Zorad et al. 1995); cited from earlier work
Sprague Dawley rats = assay: Body mass distribution of rats on high fat diet with tea treatments (DEXA); type: in vivo; settings: at 11 and 18 weeks, vs water control
Source text: Animals and treatments: Male Sprague Dawley rats (n=48) were purchased from the Animal Resource Centre (Canning Vale, WA) at 3 weeks of age. Animals were allowed to acclimate for 1 week on Purina rat chow and water. From 4 weeks of age, all animals were provided with a semi-synthetic, high fat diet (15% fat, Table 6) (Specialty Feeds, Glen Forrest, WA) and administered one of four fluid treatments: Green Tea, Black Tea, Epigallocatechin Gallate (EGCG) or water. Tea and tea extracts were given as 100% of their fluid intake. Rats were maintained on the high fat diet and tea treatment until week 29. Food and fluid intakes were measured daily and body weights recorded weekly.
Green and Black tea: Green and Black tea bags (Dilmah Natural Green Tea™ and Dilmah Black Tea™) were purchased from a local retail outlet. Ten tea bags (approximately 2 g tea leaves/bag) were steeped in 1 liter of boiling tap water in a covered container for 3 minutes. Tea bags were then expelled of excess tea and the tea preparations made up to a 2 liter volume with cold tap water. This approximated to 1 tea bag per 200 ml of water. […]
Dual Energy X-ray Absorptiometry (DEXA): Body composition was determined by dual energy x-ray absorptiometry using a Hologic QDR-4000/W Absorptiometer. […] Fat, lean and total mass was measured, along with the percentage fat ratio and bone mineral content. […]

IC50 (α-glucosidase) (α-glucosidase): 14 µg/mL | % Inhibition of α-glucosidase (α-glucosidase; 4.7 μg/mL): 5.7 ± 3.1% | % Inhibition of α-glucosidase (α-glucosidase; 9.4 μg/mL): 19.3 ± 2.7% | % Inhibition of α-glucosidase (α-glucosidase; 18.8 μg/mL): 73.5 ± 7.5% | % Inhibition of α-glucosidase (α-glucosidase; 37.5 μg/mL): 97.4 ± 5.9%
Molecule: Fucoidan

Molecule: CCCCc1nc(Cl)c(CO)n1Cc1ccc(-c2ccccc2-c2nn[nH]n2)cc1 [losartan]
adipocyte size (rats): reduction

Molecule: O=C(O[C@@H]1Cc2c(O)cc(O)cc2O[C@@H]1c1cc(O)c(O)c(O)c1)c1cc(O)c(O)c(O)c1 [EGCG, (−)-epigallocatechin-3-gallate]
grams of lean mass (Sprague Dawley rats): significantly higher
